Data set [1] addresses C-C chemokine receptor type 5 (Homo sapiens, UniProt P51681). The data set can be described thus: Antagonist activity at CCR5 (unknown origin) expressed in human MOLT4 cells assessed as inhibition of CCL5-induced calcium mobilization after 1 hr. It is filed as functional, cell-based, MOLT-4.
Data set [2] is described as follows: Antiproliferative activity against human M12 cells after 72 hrs by WST1 assay. It is filed as functional, cell-based. As to conditions: M12, 72 h.
For data set [3], the system named is PC-3. As to the kind of experiment: Antiproliferative activity against human PC3 cells after 72 hrs by WST1 assay. The data set is classed as functional, cell-based. As to conditions: PC-3, 72 h. (In general: Tetrazolium dyes change colour on reduction, which living cells bring about.)
The nature of data set [4]: Cytotoxicity against mouse NIH/3T3 cells after 72 hrs by WST1 assay. As to conditions: read-out: TC50. The data set is classed as cell-based, NIH3T3.

17 compounds from ChEMBL document CHEMBL3603778, “Exploration on natural product anibamine side chain modification toward development of novel CCR5 antagonists and potential anti-prostate cancer agents” (Bioorg Med Chem Lett, 2015) can be followed below.

Some results are limits rather than exact numbers.

Chain of C-C chemokine receptor type 5 (P51681 whole entry): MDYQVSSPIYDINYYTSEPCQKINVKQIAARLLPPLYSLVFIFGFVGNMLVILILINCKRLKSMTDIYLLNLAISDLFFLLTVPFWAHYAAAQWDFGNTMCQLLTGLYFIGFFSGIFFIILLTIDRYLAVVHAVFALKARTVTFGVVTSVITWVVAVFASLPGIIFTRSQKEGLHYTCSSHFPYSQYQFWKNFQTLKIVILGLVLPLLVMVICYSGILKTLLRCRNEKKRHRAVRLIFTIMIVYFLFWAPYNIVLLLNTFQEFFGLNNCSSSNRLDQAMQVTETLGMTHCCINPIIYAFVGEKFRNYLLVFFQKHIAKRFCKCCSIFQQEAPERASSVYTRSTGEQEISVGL

The IC50 is the concentration needed to halve the response being measured. `Cc1c(CNC(=O)c2ccc3ccccc3c2)c(C)[n+]2c(c1CNC(=O)c1ccc3ccccc3c1)CCC2`: the half-maximal inhibitory concentration (IC50) in data set [1] was 12.7 µM; in data set [2], 192 µM; in data set [3], 101 µM.
For the compound `Cc1c(CNC(=O)c2ccc(-c3ccccc3)cc2)c(C)[n+]2c(c1CNC(=O)c1ccc(-c3ccccc3)cc1)CCC2`, the IC50 in data set [1] came out at 17.3 µM; in data set [2], 49.1 µM; in data set [3], 47.1 µM. Moreover, in data set [4], the CC50 at 72 h came out at 228 µM.
Taken in the same sequence, the figures for `Cc1c(CNC(=O)c2ccc(C3CCCCC3)cc2)c(C)[n+]2c(c1CNC(=O)c1ccc(C3CCCCC3)cc1)CCC2` were 12.9 µM, 20.9 µM, 55.3 µM and 43.4 µM.
As to `Cc1c(CNC(=O)c2ccc(C(C)(C)C)cc2)c(C)[n+]2c(c1CNC(=O)c1ccc(C(C)(C)C)cc1)CCC2`, the half-inhibitory concentration (IC50) in data set [1] worked out at 30.1 µM; in data set [2] it was 59.9 µM; in data set [3], 31 µM. The CC50 at 72 h in data set [4] was 83.2 µM.
Taken in the same sequence, the figures for `Cc1c(CNC(=O)c2ccc(C(C)C)cc2)c(C)[n+]2c(c1CNC(=O)c1ccc(C(C)C)cc1)CCC2` were 26.8 µM, 120 µM, 168 µM and 270 µM.
Taken in the same sequence, the figures for `Cc1c(CNC(=O)c2ccc(Br)cc2)c(C)[n+]2c(c1CNC(=O)c1ccc(Br)cc1)CCC2` were 38.5 µM, 92 µM, 147 µM and 182 µM.
Taken in the same sequence, the figures for `Cc1c(CNC(=O)c2ccc(Cl)cc2)c(C)[n+]2c(c1CNC(=O)c1ccc(Cl)cc1)CCC2` were 46.2 µM, 135 µM, 179 µM and 263 µM.
Consider `Cc1c(CNC(=O)c2ccc(C(F)(F)F)cc2)c(C)[n+]2c(c1CNC(=O)c1ccc(C(F)(F)F)cc1)CCC2`, for which, in data set [1], the half-inhibitory concentration (IC50) worked out at 121 µM.
In the case of `Cc1c(CNC(=O)c2ccc([N+](=O)[O-])cc2)c(C)[n+]2c(c1CNC(=O)c1ccc([N+](=O)[O-])cc1)CCC2`, the IC50 is 67.7 µM in data set [1], 161 µM in data set [2] and over 300 µM in data set [3].
As to `Cc1c(CNC(=O)c2ccc(F)cc2)c(C)[n+]2c(c1CNC(=O)c1ccc(F)cc1)CCC2`, the half-inhibitory concentration (IC50) in data set [1] was determined as 80.9 µM.
On the same count and under the same terms, next, `Cc1c(CNC(=O)c2ccc(C#N)cc2)c(C)[n+]2c(c1CNC(=O)c1ccc(C#N)cc1)CCC2`: 101 µM; `Cc1c(CNC(=O)c2ccc(N)cc2)c(C)[n+]2c(c1CNC(=O)c1ccc(N)cc1)CCC2`: 174 µM.
As to `CSc1ccc(C(=O)NCc2c(C)c(CNC(=O)c3ccc(SC)cc3)c3[n+](c2C)CCC3)cc1`, the half-maximal inhibitory concentration (IC50) was 252 µM in data set [2] and 102 µM in data set [3].
As to `COc1ccc(C(=O)NCc2c(C)c(CNC(=O)c3ccc(OC)cc3)c3[n+](c2C)CCC3)cc1`, the values for the half-inhibitory concentration (IC50) in data set [1], in data set [2] and in data set [3] were 69 µM, 127 µM and 154 µM, respectively.
Consider `CCc1ccc(C(=O)NCc2c(C)c(CNC(=O)c3ccc(CC)cc3)c3[n+](c2C)CCC3)cc1`, for which the values for the IC50 in data set [1], in data set [2] and in data set [3] were 23.9 µM, 169 µM and 162 µM, respectively.
With `Cc1ccc(C(=O)NCc2c(C)c(CNC(=O)c3ccc(C)cc3)c3[n+](c2C)CCC3)cc1`, the IC50 is 18.7 µM in data set [1], 185 µM in data set [2] and 244 µM in data set [3].
In the case of `Cc1c(CNC(=O)c2ccccc2)c(C)[n+]2c(c1CNC(=O)c1ccccc1)CCC2`, the values for the half-inhibitory concentration (IC50) in data set [1], in data set [2] and in data set [3] were 1.35 µM, 285 µM and 508 µM, respectively. In addition, the CC50 at 72 h in data set [4] was 212 µM.
